# Laboratory results as given in patent US8404696B2, “Quinazoline-2,4-dione derivative, and medical compositions for the prophylaxis and treatment of cranial nerve disease containing the same” (Shin Poong Pharmaceutical Co., Ltd., priority 2008, dated 2013).
# How the values were obtained:
# [1] = tested on: superoxide dismutase (SOD); experiment: Increase of superoxide dismutase (SOD) activity in mouse brain cells; assay type: cell-based; settings: 100 μg/ml
# Protocol: (§1) ROS inhibitory effect of compounds was represented to the dose suppressing 50% of production of reactive oxygen compared to control. […] The activity of superoxide dismutase (SOD) was measured by using a kit acquired in Sigma.
# [2] = tested on: pentylentetrazole (PTZ)-induced convulsion; experiment: Anti-convulsant effect, pentylentetrazole (PTZ) test; assay type: in vivo; settings: 10 mg/kg intraperitoneally, PTZ 80 mg/kg subcutaneously; for mortality rate / Induction percentage of convulsion: (animals/total); for mortality rate: negative control 70(17/23); for Induction percentage of convulsion: negative control 100(23/23); for Initiation time of convulsion: negative control 5.0 ± 0.7; for Duration of convulsion: negative control 46.7 ± 3.3
# Protocol: An experiment was performed by the method of Ali et al. (Ali, A. et al. 2006, Pharmacological Reports, 58: 242-245). A 10 mg/kg dose of compound was intraperitoneally administered to identify the anti-convulsant effect and the effect was observed (Table 8). Researching the process of activity was performed by the Anti-epileptic Drug Development Program (ADD) of NIH during development of the anti-convulsant drug. One of the assessed items of anti-convulsant activity in the first step of this program is the pentylentetrazole (PTZ) test. […] After 10 mg/kg of the testing drug was administered, assessment was performed by estimating the initiation time of convulsion, duration until convulsion completely disappeared and mortality rate. It was assessed as having an anti-convulsant effect when a single episode of clonic spasm was not shown over 5 seconds on at least one of the 4 laboratory animals after PTZ administration.
# [3] = tested on: mixed culture of nerve cells-glial cells; experiment: Protecting effect on NMDA-induced nerve cell death (LDH release); assay type: cell-based, ICR mouse; settings: 100 μM NMDA, LDH release after 24 hours
# Protocol: Isolation and culture of nerve cells were performed by Choi's method (Choi, D. W. 1985, Neurosci. Lett., 58: 293-297). That is, the cortex was isolated in fetus ICR mouse that was 14 days pregnant, and then single cells were obtained from the tissue using pipette. The cells were aliquoted into 2×10^5/well density in a 24-well plate (Falcon) in which glial cells of cerebral cortex had been cultured in an incubator maintained at 37° C. with 5% CO2 for over 3 weeks. The culture medium was supplemented with MEM (minimum essential medium, Sigma), 2 mM glutamine, 21 mM glucose, 26.5 mM bicarbonate, 10% fetal bovine serum (FBS). In 3-5 days after aliquot, 10 μM Ara-C (cytosine arabinoside) was treated to suppress proliferation of neuroglia. And it was treated with 100 μM NMDA and 1 μg/mL or 2 μg/mL of each sample (compound) to induce the death of nerve cells due to excitable toxicity for 20 minutes, in 12-15 days after aliquot. Because of nerve cell death, lactate dehydrogenase (LDH) accumulated in proportion to the number of dead cells. In 24 hours after drug treatment, the amount of dehydrogenase (LDH) released to outside of cells was measured by using an […] measurement kit (CytoTox 96, Promega). After the reaction was completed, the change of absorbance depending on the amount of LDH was measured by using a microplate spectrophotometer.
# [4] = tested on: mouse brain cells; experiment: Inhibitory effect on ROS production in brain cells (DCF-DA, NMDA-induced); assay type: cell-based; settings: dose suppressing 50% of production of reactive oxygen compared to control, mouse brain cells; for IC50: 24 h, read-out: ROS inhibitory effect ID50
# Protocol: Oxidative stress was measured to test inhibitory effects on the production of reactive oxygen species (ROS) by using DCF-DA, which is a fluorescent probe. Brain cells were obtained from brain cortex of mouse to prepare cell solution with 2×10^6 cells/ml. Each brain cell was treated with 11 μM of DCF-DA followed by reaction in 37° C., 5% CO2 incubator for an hour. After washing twice, Compound 3 was treated with a concentration of 125 μg/ml and 250 μg/ml. At the same time, 300 μM of NMDA was treated and it was incubated in 37° C., 5% CO2 incubator for 24 hours.
# as §1
# [5] = tested on: thoracic aorta of rats; experiment: Relaxing effect on thoracic aorta contracted by phenylephrine (organ bath); design: species or system rats of SD species; settings: Rattus norvegicus; 67 μg/mL; phenylephrine 0.5 μM; mean n = 3; read-out: Relaxation percentage
# Text: After male rats of SD species (250-300 g) were anesthetized by inhalation of ether, their thoracic aortas were extracted and put into a Krebs buffer (mM; NaCl 118, NaHCO3 27.3, KCl 4.8, MgSO4 1.2, KH2PO4 1.0, CaCl2 1.25, glucose 11.1). 2 mm of aortic ring was made under dissecting microscope and cultured in an organ bath to measure the tension of blood vessels. The organ bath was filled with Krebs buffer and saturated with 95% O2, 5% CO2 to maintain dissolved oxygen and physiological pH. Changing of tension was measured by a tension meter (Hugo-sachs, model K30) and recorded by physiological recorder (Coulbourn polygraph). The length of the blood vessels was increased step by step to make 1.0 g of basal tension for 90 minutes. The equilibrated blood vessel was contracted by phenylephrine (0.5 μM). When the contraction furrow reached equilibrium, compounds were added, followed by observation of relaxation response.
SMILES,"Increase of SOD activity, compared to control [1]",mortality rate [2],Induction percentage of convulsion [2],Initiation time of convulsion [2],Duration of convulsion [2],Inhibitory effect of cell death by NMDA-induced excitable neurotoxicity ([3]; 1 μg/ml compound),Inhibitory effect of cell death by NMDA-induced excitable neurotoxicity ([3]; 2 μg/ml compound),IC50 [4],inhibition at 67 µg/mL [5],ROS inhibitory effect ID50 [4]
"O=c1[nH]c2ccccc2c(=O)n1CCCNCCNCCCn1c(=O)[nH]c2ccccc2c1=O [Compound 29, 3-(3-{2-[3-(2,4-dioxo-1,4-dihydro-2H-quinazolin-3-yl)propylamino]ethylamino}propyl)-1H-quinazoline-2,4-dione]",3.0 ± 1.1,17(1/6) %,83(5/6) %,18.2 ± 9.1 min,30.3 ± 11.1 min,8.5%,29.5%,10.1 ± 17.3 µg/mL,,
"CC(=O)N(CCCCN(CCCn1c(=O)[nH]c2ccccc2c1=O)Cc1ccccc1)CCCn1c(=O)[nH]c2ccccc2c1=O [Compound 13, N-(4-{benzyl-[3-(2,4-dioxo-1,4-dihydro-2H-quinazolin-3-yl)propyl]amino}butyl)-N-[3-(2,4-dioxo-1,4-dihydro-2H-quinazolin-3-yl)propyl]acetamide]",7.6 ± 2.9,,,,,17.4%,23.0%,87.3 ± 10.9 µg/mL,9.3%,
"CCCCCCn1c(=O)n(CCCN(CCCCN(CCCn2c(=O)c3ccccc3n(CCCCCC)c2=O)C(=O)OC(C)(C)C)C(=O)OC(C)(C)C)c(=O)c2ccccc21 [Compound 32, (4-{tert-butoxycarbonyl-[3-(1-hexyl-2,4-dioxo-1,4-dihydro-2H-quinazolin-3-yl)propyl]amino}butyl)-[3-(1-hexyl-2,4-dioxo-1,4-dihydro-2H-quinazolin-3-yl)propyl]carbamic acid tert-butyl ester]",0.3 ± 7.1,50(3/6) %,100(5/6) %,11.3 ± 4.5 min,29.8 ± 12.0 min,32.0%,29.8%,14.4 ± 7.6 µg/mL,,
"O=c1[nH]c2ccccc2c(=O)n1CCCNCCCNCCCn1c(=O)[nH]c2ccccc2c1=O [Compound 24, 3-(3-{3-[3-(2,4-dioxo-1,4-dihydro-2H-quinazolin-3-yl)propylamino]propylamino}propyl)-1H-quinazoline-2,4dione]",6.9 ± 3.8,50(3/3) %,100(6/6) %,6.1 ± 1.7 min,35.7 ± 84 min,27.4%,30.3%,122 ± 32.4 µg/mL,,
"CCOC(=O)N(CCCCN(CCCn1c(=O)[nH]c2ccccc2c1=O)C(C)=O)CCCn1c(=O)[nH]c2ccccc2c1=O [Compound 14, (4-{acetyl-[3-(2,4-dioxo-1,4-dihydro-2H-quinazolin-3-yl)propyl]amino}butyl)-[3-(2,4-dioxo-1,4-dihydro-2H-quinazolin-3-yl)propyl]carbanic Acid ethyl ester]",2.7 ± 1.0,0(0/6) %,100(6/6) %,8.5 ± 1.8 min,2.9 ± 2.1 min,18.9%,26.9%,,,90.1 ± 12.2 µg/mL
"CC(=O)N(CCCCn1c(=O)[nH]c2ccccc2c1=O)CCCn1c(=O)[nH]c2ccccc2c1=O [Compound 22, N-[4-(2,4-dioxo-1,4-dihydro-2H-quinazolin-3-yl)butyl]-N-[3-(2,4-dioxo-1,4-dihydro-2H-quinazolin-3-yl)propyl]acetamide]",3.7 ± 0.8,0(0/6) %,83(5/6) %,15.2 ± 9.0 min,7.0 ± 3.2 min,17.0%,14.0%,172 ± 23.6 µg/mL,,
"O=C1c2ccccc2C(=O)N1CCCNCCCCNCCCn1c(=O)[nH]c2ccccc2c1=O [Compound 28, 3-(3-{4-[3-(1,3-dioxo-1,3-dihydro-isoindole-2-yl)propylamino]butylamino}propyl)-1H-quinazoline-2,4-dione]",,0(0/6) %,100(6/6) %,4.8 ± 2.2 min,26.9 ± 6.5 min,23.1%,22.4%,30.9 ± 13.7 µg/mL,8.3%,
"Cc1ccc(S(=O)(=O)N(CCCCNCCCn2c(=O)[nH]c3ccccc3c2=O)CCCn2c(=O)[nH]c3ccccc3c2=O)cc1 [Compound 40, N-[3-(2,4-dioxo-1,4-dihydro-2H-quinazolin-3-yl)propyl]-N-{4-[3-(2,4-dioxo-1,4-dihydro-2H-quinazolin-3-yl)propylamino]butyl}-4-methylbenzenesulfonamide]",8.3 ± 3.2,83(5/6) %,100(6/6) %,11.2 ± 2.4 min,42.3 ± 8.5 min,,34.5%,31 ± 8.1 µg/mL,,
"Cn1c(=O)n(CCCNCCCCNCCCn2c(=O)c3ccccc3n(C)c2=O)c(=O)c2ccccc21 [Compound 27, 1-methyl-3-(3-{4-[3-(1-methyl-2,4-dioxo-1,4-dihydro-2H-quinazolin-3-yl)propylamino]butylamino}propyl)-1H-quinazoline-2,4-dione]",2.4 ± 7.8,50(3/6) %,100(6/6) %,8.4 ± 2.6 min,35.8 ± 9.8 min,33.7%,36.0%,21.9 ± 16.1 µg/mL,,
"CCOC(=O)N(CCCCNCCCn1c(=O)[nH]c2ccccc2c1=O)CCCn1c(=O)[nH]c2ccccc2c1=O [Compound 5, [3-(2,4-dioxo-1,4-dihydro-2H-quinazolin-3-yl)propyl]-{4-[3-(2,4-dioxo-1,4-dihydro-2H-quinazolin-3-yl)propylamino]butyl}carbamic Acid ethyl ester]",2.5 ± 2.8,,,,,11.4%,39.4%,24.4 ± 10.5 µg/mL,19.2%,
